pEC50: −log10 of the molar value.
Tests used:
Transcription factor p65 [1] = target: T1, Transcription factor p65 (Human, UniProt Q04206); assay: Potentiation of TNF-alpha-induced NF-kappaB p65 nuclear translocation in HUVEC cells by immunostaining
Transcription factor p65 [2] = target: T1, Transcription factor p65; assay: Induction of NF-kappaB p65 nuclear translocation in HUVEC cells by immunostaining

T1 sequence (Q04206 whole entry): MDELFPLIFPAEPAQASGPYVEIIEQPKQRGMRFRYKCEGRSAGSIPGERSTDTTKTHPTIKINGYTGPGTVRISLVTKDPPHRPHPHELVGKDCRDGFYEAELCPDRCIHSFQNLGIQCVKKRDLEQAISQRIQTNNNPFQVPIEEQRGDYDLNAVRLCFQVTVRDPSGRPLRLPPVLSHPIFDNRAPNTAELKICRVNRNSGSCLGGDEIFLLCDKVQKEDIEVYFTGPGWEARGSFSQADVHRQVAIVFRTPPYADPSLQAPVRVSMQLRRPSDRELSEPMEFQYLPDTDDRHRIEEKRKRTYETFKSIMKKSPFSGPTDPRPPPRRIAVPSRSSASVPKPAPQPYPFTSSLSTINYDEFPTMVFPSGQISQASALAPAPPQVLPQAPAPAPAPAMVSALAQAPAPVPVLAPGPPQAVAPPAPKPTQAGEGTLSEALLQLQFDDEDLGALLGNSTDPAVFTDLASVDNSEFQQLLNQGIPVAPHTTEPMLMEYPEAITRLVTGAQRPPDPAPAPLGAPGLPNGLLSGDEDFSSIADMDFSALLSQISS

Row | Structure (SMILES) | pEC50 (Transcription factor p65 [1]) | pEC50 (Transcription factor p65 [2])
1 | COc1cccc2nc(-c3cccs3)nc(NN3C(=O)C=C(C)C3=O)c12 [1-(5-Methoxy-2-thiophen-2-yl-quinazolin-4-ylamino)-3-methyl-pyrrole-2,5-dione] | 6.42 | 5.80
2 | COc1ccc(Cl)c2nc(-c3cccs3)nc(NN3C(=O)C=C(C)C3=O)c12 [1-(8-chloro-5-methoxy-2-(thiophen-2-yl)quinazolin-4-ylamino)-3-methyl-1H-pyrrole-2,5-dione] | 6.51 | 5.62
3 | COc1ccc2nc(-c3cccs3)nc(NN3C(=O)C=C(C)C3=O)c2c1 [1-(6-methoxy-2-(thiophen-2-yl)quinazolin-4-ylamino)-3-methyl-1H-pyrrole-2,5-dione] | 4.38 | 5.01
